Assay [1] can be described thus: Inhibition of GST-tagged KRAS G12V mutant (2 to 169 residues) (unknown origin)/SOS1 catalytic domain (564 to 1069 residues) (unknown origin) protein-protein interaction preincubated with compound for 90 mins followed by SOS1 and GTP-DY-647P1 addition and measured after 60 mins by fluorescence based nucleotide exchange assay. Also noted: species or system Homo sapiens.

The nature of assay [2]: Inhibition of ERK phosphorylation in human GP2d cells harboring KRAS G12D mutant incubated for 3 hrs by ICW assay. The assay is classed as cell-based.
The target of another assay is SOS1-KRAS (Homo sapiens, UniProt P01116, G12D). The assay can be described thus: Inhibition of GST-tagged KRAS G12D mutant (2 to 169 residues) (unknown origin)/SOS1 catalytic domain (564 to 1069 residues) (unknown origin) protein-protein interaction preincubated with compound for 90 mins followed by SOS1 and GTP-DY-647P1 addition and measured after 30 mins by fluorescence based nucleotide exchange assay. The assay is classed as protein-complex assay.

For orientation: IC50 means the midpoint of a concentration-inhibition curve.

On to `CN(C)C(=O)c1nn2c(c1Cl)CN(c1nc(OC[C@@]34CCCN3C[C@H](F)C4)nc(N3CCC(c4c(Cl)sc(N)c4C#N)C3)c1C#N)CCC2` (stereo partly specified), for which the IC50 was under 10 nM in assay [1], 10 nM in assay [2] and under 10 nM on SOS1-KRAS.
Regarding `CN(C)C(=O)c1nn2c(c1Cl)CN(c1nc(OC[C@@]34CCCN3C[C@H](F)C4)nc(N3CC(c4csc(N)c4C#N)C3)c1C#N)CCC2`, the values for the IC50 (in assay [1]; in assay [2]; at SOS1-KRAS) were under 10 nM, 100 nM and under 10 nM, respectively.
In the case of `CC1(c2csc(N)c2C#N)CN(c2nc(OC[C@@]34CCCN3C[C@H](F)C4)nc(N3C[C@H]4CC[C@@H](C3)N4)c2C#N)C1`, the IC50 in assay [2] was 10 nM; at SOS1-KRAS, under 10 nM.
Consider `CN(C)C(=O)c1nn2c(c1Cl)CN(c1cc(N3CC(C)(c4csc(N)c4C#N)C3)nc(OC[C@@]34CCCN3C[C@H](F)C4)n1)CCC2`, for which the IC50 in assay [2] was found to be 1000 nM; at SOS1-KRAS, 10 nM.
As to `CN(C)C(=O)c1nn2c(c1Cl)CN(c1nc(OC[C@@]34CCCN3C[C@H](F)C4)nc(N3CC(c4c(Cl)sc(N)c4C#N)C3)c1C#N)CCC2`, the IC50 in assay [1] was under 10 nM; in assay [2], 1 nM; at SOS1-KRAS it was under 10 nM.
Consider `C[C@H](c1cccnc1N)N(C)c1nc(OC[C@@]23CCCN2C[C@H](F)C3)nc(N2CC(C)(c3csc(N)c3C#N)C2)c1C#N`, for which the IC50 in assay [1] was under 10 nM; in assay [2], 10 nM; on SOS1-KRAS, under 10 nM.

Values taken from ChEMBL document CHEMBL6134926, “Targeting KRAS G12D Mutations: Advances in Small Molecule Inhibitors and PROTAC Technology” (ACS Med Chem Lett, 2025).
